Assay results taken from US11000033B2, “Ketone or oxime compound, and herbicide” (NISSAN CHEMICAL CORPORATION, priority 2014, dated 2021).

What was measured:
Type in all cases: in vivo
Stellaria media = assay: Test Example 5: herbicidal effect by foliage application, plastic box (symbol P); details: 320 g/ha, 3 weeks after application
Procedure, shortened: (§1)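 Visual herbicidal score, taken three weeks post-application, of seedlings sprayed on the foliage with water-diluted emulsion at a predetermined amount; plants were 14 days old, greenhouse-raised at 25° C. to 30° C.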

beet = assay: Test Example 4: effect on crop by soil treatment (symbol f); details: application herbicide amount 320 g/ha
Procedure, shortened: (§2)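 Greenhouse culture at 25° C. to 30° C. followed sowing of seed in spots on sterilized diluvial soil with a soil cover close to 1.5 cm thick.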

[1] = test system: Echinochloa crus-galli var. crus-galli; assay: Test Example 3: herbicidal effect by foliage application, Wagner pot (symbol H); details: application herbicide amount 320 g/ha
Procedure, shortened: (§3)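 Post-emergence, paddy-type test: seedlings 14 d old in shallow-flooded (0.1–0.5 cm) alluvial soil, 25–30 °C greenhouse. Emulsion diluted to target rate, sprayed on leaves. Read-out: visual effect on each species at 3 weeks, per set criteria.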

Chenopodium album [2] = assay: Test Example 4: herbicidal effect by soil treatment (symbol O); details: application herbicide amount 320 g/ha
Procedure, shortened: (§4)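 Seeds were sown in sterilized diluvial soil, covered with about 1.5 cm of soil, and the soil surface was sprayed with a water-diluted emulsion of the compound at a predetermined rate. Plants grew in a greenhouse at 25° C. to 30° C.; effects were scored visually 3 weeks after application.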

Leptochloa chinensis = assay: Test Example 3: herbicidal effect by foliage application, Wagner pot (symbol D); details: application herbicide amount 320 g/ha
Procedure, shortened: as §3

Abutilon theophrasti = assay: Test Example 5: herbicidal effect by foliage application, plastic box (symbol M); details: 320 g/ha, 3 weeks after application
Procedure, shortened: as §1

Cyperus difformis = assay: Test Example 3: herbicidal effect by foliage application, Wagner pot (symbol E); details: application herbicide amount 320 g/ha
Procedure, shortened: as §3

Monochoria vaginalis = assay: Test Example 2: herbicidal activity, application during weed generation in submerged conditions (symbol C); details: Table 23; application herbicide amount 320 g/ha; grade 0-5 by criteria of Test Example 1
Procedure, shortened: (§5)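 Steps: fill pots with alluvial soil; add water to 4 cm depth; co-sow the three weeds; grow at 25° C. to 30° C. under glass; at 1–2 leaves, dose the floodwater with diluted emulsion; rate damage visually after 3 weeks.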

Scirpus juncoides = assay: Test Example 2: herbicidal activity, application during weed generation in submerged conditions (symbol B); details: Table 23; application herbicide amount 320 g/ha; grade 0-5 by criteria of Test Example 1
Procedure, shortened: as §5

transplanted rice plant = assay: Test Example 1: effect on crop, application before weed generation in submerged conditions (symbol a); details: application herbicide amount 320 g/ha
Procedure, shortened: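 Alluvial soil pots flooded to 4 cm water, sown with Echinochloa oryzacola, Scirpus juncoides and Monochoria vaginalis, then transplanted with 2.5 leaf stage rice seedlings; pre-emergence application. Greenhouse 25° C. to 30° C.; scored 0–5 by herbicidal ratio 3 weeks after application.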

Apera spica-venti [3] = assay: Test Example 5: herbicidal effect by foliage application, plastic box (symbol L); details: 320 g/ha, 3 weeks after application
Procedure, shortened: as §1

rapeseed = assay: Test Example 4: effect on crop by soil treatment (symbol g); details: application herbicide amount 320 g/ha
Procedure, shortened: as §2

[4] = test system: Echinochloa crus-galli var. crus-galli; assay: Test Example 4: herbicidal effect by soil treatment (symbol H); details: application herbicide amount 320 g/ha
Procedure, shortened: as §4

[5] = test system: directly sowed rice plant; assay: Test Example 3: effect on crop by foliage application, Wagner pot (symbol b); details: application herbicide amount 320 g/ha
Procedure, shortened: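 Wagner pot (1/10000 are), alluvial soil, submerged 0.1–0.5 cm; sown E. crus-galli var. crus-galli, L. chinensis, C. difformis, rice; greenhouse 25–30 °C.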

Apera spica-venti [6] = assay: Test Example 4: herbicidal effect by soil treatment (symbol L); details: application herbicide amount 320 g/ha
Procedure, shortened: as §4

Chenopodium album [7] = assay: Test Example 5: herbicidal effect by foliage application, plastic box (symbol O); details: 320 g/ha, 3 weeks after application
Procedure, shortened: as §1

Row | Compound | P: Stellaria media, herbicidal effect (criteria of Test Example 1) (Stellaria media) | f: beet, effect on crop grade (beet) | herbicidal effect on H (Echinochloa crus-galli var. crus-galli), grade 0-5 [1] | O: Chenopodium album, herbicidal effect grade (Chenopodium album [2]) | herbicidal effect on D (Leptochloa chinensis), grade 0-5 (Leptochloa chinensis) | M: Abutilon theophrasti, herbicidal effect (criteria of Test Example 1) (Abutilon theophrasti) | herbicidal effect on E, grade 0-5 (Cyperus difformis) | Herbicidal effect grade, C: Monochoria vaginalis (Monochoria vaginalis) | Herbicidal effect grade, B: Scirpus juncoides (Scirpus juncoides) | Effect grade on crop, a: transplanted rice plant (transplanted rice plant) | L: Apera spica-venti, herbicidal effect (criteria of Test Example 1) (Apera spica-venti [3]) | g: rapeseed, effect on crop grade (rapeseed) | H: Echinochloa crus-galli var. crus-galli, herbicidal effect grade [4] | effect on crop b (directly sowed rice plant), grade 0-5 [5] | L: Apera spica-venti, herbicidal effect grade (Apera spica-venti [6]) | O: Chenopodium album, herbicidal effect (criteria of Test Example 1) (Chenopodium album [7])
1 | CON=C(C)CC1CC(O)=C(c2c(C)cc(-c3ccc(Cl)cc3)cc2OC)C1=O (stereo not shown) [6-077, 2-(4′-chloro-3-methoxy-5-methyl-[1,1′-biphenyl]-4-yl)-3-hydroxy-5-{2-(methoxyimino)propyl}cyclopent-2-enone] | 4 (Herbicidal ratio of 70% or higher and lower than 90%) | 1 (Herbicidal ratio of 5% or higher and lower than 20%) | 5 (Herbicidal ratio of 90% or more (almost completely withered)) | 4 (Herbicidal ratio of 70% or higher and lower than 90%) | 5 (Herbicidal ratio of 90% or more (almost completely withered)) | 5 (Herbicidal ratio of 90% or more (almost completely withered)) | 5 (Herbicidal ratio of 90% or more (almost completely withered)) | 3 (Herbicidal ratio of 40% or higher and lower than 70%) | 4 (Herbicidal ratio of 70% or higher and lower than 90%) | 5 (Herbicidal ratio of 90% or more (almost completely withered)) | 5 (Herbicidal ratio of 90% or more (almost completely withered)) | 4 (Herbicidal ratio of 70% or higher and lower than 90%) | 5 (Herbicidal ratio of 90% or more (almost completely withered)) | 5 (Herbicidal ratio of 90% or more (almost completely withered)) | 5 (Herbicidal ratio of 90% or more (almost completely withered)) | 4 (Herbicidal ratio of 70% or higher and lower than 90%)
2 | CON=C(C)CC1CC(OC(=O)N2CCOCC2)=C(c2c(C)cc(-c3ccc(Cl)cc3)cc2OC)C1=O (stereo not shown) [6-078, 2-(4′-chloro-3-methoxy-5-methyl-[1,1′-biphenyl]-4-yl)-4-{2-(methoxyimino)propyl}-3-oxocyclopent-1-ene-1-yl morpholine-4-carboxylate] | 3 (Herbicidal ratio of 40% or higher and lower than 70%) | 0 (Herbicidal ratio of 5% or lower (almost no effect)) | 5 (Herbicidal ratio of 90% or more (almost completely withered)) | 0 (Herbicidal ratio of 5% or lower (almost no effect)) | 5 (Herbicidal ratio of 90% or more (almost completely withered)) | 4 (Herbicidal ratio of 70% or higher and lower than 90%) | 0 (Herbicidal ratio of 5% or lower (almost no effect)) | 3 (Herbicidal ratio of 40% or higher and lower than 70%) | 2 (Herbicidal ratio of 20% or higher and lower than 40%) | 5 (Herbicidal ratio of 90% or more (almost completely withered)) | 5 (Herbicidal ratio of 90% or more (almost completely withered)) | 0 (Herbicidal ratio of 5% or lower (almost no effect)) | 0 (Herbicidal ratio of 5% or lower (almost no effect)) | 5 (Herbicidal ratio of 90% or more (almost completely withered)) | 3 (Herbicidal ratio of 40% or higher and lower than 70%) | 1 (Herbicidal ratio of 5% or higher and lower than 20%)
3 | CON=C(C)CC1CC(OC(=O)COc2ccccc2)=C(c2c(C)cc(-c3ccc(Cl)cc3)cc2OC)C1=O (stereo not shown) [6-079] | 3 (Herbicidal ratio of 40% or higher and lower than 70%) | 0 (Herbicidal ratio of 5% or lower (almost no effect)) | 5 (Herbicidal ratio of 90% or more (almost completely withered)) | 0 (Herbicidal ratio of 5% or lower (almost no effect)) | 5 (Herbicidal ratio of 90% or more (almost completely withered)) | 4 (Herbicidal ratio of 70% or higher and lower than 90%) | 4 (Herbicidal ratio of 70% or higher and lower than 90%) | 3 (Herbicidal ratio of 40% or higher and lower than 70%) | 2 (Herbicidal ratio of 20% or higher and lower than 40%) | 5 (Herbicidal ratio of 90% or more (almost completely withered)) | 5 (Herbicidal ratio of 90% or more (almost completely withered)) | 0 (Herbicidal ratio of 5% or lower (almost no effect)) | 5 (Herbicidal ratio of 90% or more (almost completely withered)) | 5 (Herbicidal ratio of 90% or more (almost completely withered)) | 5 (Herbicidal ratio of 90% or more (almost completely withered)) | 3 (Herbicidal ratio of 40% or higher and lower than 70%)
4 | CON=C(C)CC1CC(OC(=O)CCCC(C)=O)=C(c2c(C)cc(-c3ccc(Cl)cc3)cc2C)C1=O (stereo not shown) [6-080] | 0 (Herbicidal ratio of 5% or lower (almost no effect)) | 0 (Herbicidal ratio of 5% or lower (almost no effect)) | 5 (Herbicidal ratio of 90% or more (almost completely withered)) | 0 (Herbicidal ratio of 5% or lower (almost no effect)) | 5 (Herbicidal ratio of 90% or more (almost completely withered)) | 4 (Herbicidal ratio of 70% or higher and lower than 90%) | 5 (Herbicidal ratio of 90% or more (almost completely withered)) | 3 (Herbicidal ratio of 40% or higher and lower than 70%) | 4 (Herbicidal ratio of 70% or higher and lower than 90%) | 5 (Herbicidal ratio of 90% or more (almost completely withered)) | 5 (Herbicidal ratio of 90% or more (almost completely withered)) | 0 (Herbicidal ratio of 5% or lower (almost no effect)) | 5 (Herbicidal ratio of 90% or more (almost completely withered)) | 5 (Herbicidal ratio of 90% or more (almost completely withered)) | 5 (Herbicidal ratio of 90% or more (almost completely withered)) | 0 (Herbicidal ratio of 5% or lower (almost no effect))
